# “Also recorded” adds a separate entry of the source.
# Assays:
# [1] = system: thyroid function of normal rats; assay: Effect of dl-tetrahydropalmatine (THP) on thyroid function of normal rats (Experiment 4)
# Protocol: (§1) On the 15th day, each rat is intraperitoneally injected with pentobarbital 50 mg/kg and narcotized. The rat abdominal cavity is cut to take the thyroid out for weighing and for examining pathological section, which is stained with H-E stain to facilitate observation of pathologic changes.
# The method of experiment 1 is repeated by daily treating dl-tetrahydropalmatine (THP) 2.5 mg/kg, 5.0 mg/kg and 10 mg/kg (I.P.) respectively for continuous 14 days.
# [2] = system: blood cholesterol and triglyceride in rats; assay: Effects of THP on blood cholesterol, triglyceride and T4 in L-T4 induced hyperthyroidism rats (Experiment 5); type: in vivo, rats (Sprague-Dawley); settings: 10 days
# [3] = system: hyperthyroidism in rats (TSH, T3, T4, FT3 and FT4 in the bloods); assay: Effect of PBT and THP on serum TSH, T3, T4, FT3, FT4, L-T4 induced hyperthyroidism rats (Experiment 3); type: in vivo, female Sprague-Dawley rats
# Protocol: (§2) The female Sprague-Dawley rats, each weighs 260±15 grams, are divided into 5 groups of 6 rats, each rat being subcutaneously injected (s.c.) with L-T4 300 μg/kg daily for continuous 12 days to induce hyperthyroidism in each rats. […] The control group is treted with saline. After continuous treatment of 10 days as described above, each rat is injected (I.P.) with pentobarbitol 50 mg/kg and narcotized on the eleventh day, and then extracted the arterial blood for measuring concentrations of TSH, T3, T4, FT3 and FT4 in the bloods.
# [4] = system: blood cholesterol and triglyceride in rats; assay: Effects of THP on blood cholesterol, triglyceride and T4 in L-T4 induced hyperthyroidism rats (Experiment 5); type: in vivo, rats (Sprague-Dawley); settings: 10 days; remark: listed apart in the source
# Protocol: as §2
# [5] = system: TSH, T3, T4, FT3 and FT4 in bloods; assay: Effect of PBT and THP on serum TSH, T3, T4, FT3, FT4, normal rats (Experiment 3); type: in vivo, female Sprague-Dawley rats
# Protocol: The female Sprague-Dawley rats, each weights 270±15 grams, are divided into 5 groups of 6 rats, for following daily treatment for continuous 10 days, except a normal group for control.
# On the eleventh days, each rat is injected (I.P.) with pentobarbital 50 mg/kg and narcotized for extracting arterial blood which is settled for 2 hours at room temperature and centrifuged at 2500 rpm for 10 minutes to separate the serum. The concentrations of TSH, T3, T4, FT3 and FT4 in bloods are analyzed by RIA methods. The normal control group is treated with saline and analyzed by the same methods.
# rat thyroid = assay: Effect of each extracted layer of Corydalis on rat thyroid: body and thyroid weight, normal rats (Experiment 1); settings: 50 mg/kg daily p.o., 14 days, vs control
# Protocol: ICR mice may be used as testing animals in this invention, each having a weight of 18-25 grams. Sprague-Dawley rats each having a weight of 240±10 grams may also be used in this invention.
# The mice or rats are placed in a metal cage by feeding 5 mice per group in each cage with solid foods and distilled water at least 1 week before performing the experiment at […] and humidity of 55±5%.
# as §1
# [6] = system: hyperthyroidism in rats (TSH, T3, T4, free T3 and free T4 in the serum); assay: Serum TSH, T3, T4, FT3, FT4 by RIA, L-T4 induced hyperthyroidism rats (Experiment 2); type: in vivo, female Sprague-Dawley rats
# Protocol: The female Sprague-Dawley rats each having a weight of 250±10 grams are subcutaneously injected (S.C.) for 12 days with a daily dose of 300 μg/kg for each rat to induce hyperthyroidism. […] Then, the rat abdominal cavity is cut to extract arterial blood which is settled for 2 hours at room temperature and is centrifuged at 2500 rpm for 10 minutes for separating the serum.
# The concentrations of TSH, T3, T4, free T3 and free T4 in the serum by RIA methods.
# thyroid follicle cells = assay: Thyroid pathological section, H-E stain, normal rats (Experiment 1); type: in vivo, female Sprague-Dawley rats; settings: 50 mg/kg daily p.o., 14 days
# [7] = system: rat thyroid, pituitary and suprarenal gland; assay: Effect of THP on rat thyroid, pituitary and suprarenal gland weight (Experiment 6); type: in vivo, rats (Sprague-Dawley); settings: PTU, 14 days
# [8] = hyperthyroidism rats, THP 2.5 mg/kg i.p.
# [9] = hyperthyroidism rats, THP 5 mg/kg i.p.
# [10] = hyperthyroidism rats, THP 10.0 mg/kg i.p.
# [11] = L-T4 induced hyperthyroidism rats, THP 5 mg/kg i.p., 10 days
# [12] = hyperthyroidism rats, THP 5 mg/kg, I.P.
# [13] = THP 50 mg/kg [sic], i.p., 10 days
# [14] = hyperthyroidism rats, PTU 5.0 mg/kg
# [15] = L-T4 induced hyperthyroidism rats, PTU 5 mg/kg p.o., 10 days
structure (smiles),measurement,setting,value
"COc1cc2c(cc1OC)C1Cc3ccc(OC)c(OC)c3CN1CC2 (racemic) [THP, dl-tetrahydropalmatine]",FT3,"[1]; THP 2.5 mg/kg i.p., 14 days",1.3 ± 0.1 ng/dL
same,FT4,"[1]; THP 2.5 mg/kg i.p., 14 days",1.7 ± 0.5 ng/dL
same,T3,"[1]; THP 2.5 mg/kg i.p., 14 days",56.8 ± 3.1 ng/dL
same,T4,"[1]; THP 2.5 mg/kg i.p., 14 days",2.3 ± 0.5 µg/dL
same,TSH,"[1]; THP 2.5 mg/kg i.p., 14 days",1.9 ± 0.1 μu/ml
same,FT3,"[1]; THP 5.0 mg/kg i.p., 14 days",1.2 ± 0.2 ng/dL
same,FT4,"[1]; THP 5.0 mg/kg i.p., 14 days",2.1 ± 0.2 ng/dL
same,T3,"[1]; THP 5.0 mg/kg i.p., 14 days",58.8 ± 3.7 ng/dL
same,T4,"[1]; THP 5.0 mg/kg i.p., 14 days",2.5 ± 0.2 µg/dL
same,TSH,"[1]; THP 5.0 mg/kg i.p., 14 days",2.5 ± 0.4 μu/ml
same,FT4,"[1]; THP 10.0 mg/kg i.p., 14 days",1.9 ± 1.5 ng/dL
same,T3,"[1]; THP 10.0 mg/kg i.p., 14 days",49.1 ± 2.5 ng/dL
same,T4,"[1]; THP 10.0 mg/kg i.p., 14 days",2.3 ± 0.3 µg/dL
same,TSH,"[1]; THP 10.0 mg/kg i.p., 14 days",1.9 ± 0.1 μu/ml
same,"effect on T3, T4, FT3, FT4 and TSH (in words)","[1]; THP 2.5, 5.0 and 10 mg/kg i.p., 14 days","no influence on the concentrations of T3, T4, FT3, FT4 and TSH"
same,effect on cholesterol compared with PTU (in words),[2]; THP i.p.,increases the cholesterol by a much smaller amount than PTU
same,Cholesterol,[2]; [8],57.5 ± 3.5 mg/dL
same,Triglyceride,[2]; [8],29.5 ± 3.5 mg/dL
same,Cholesterol,[2]; [9],58.5 ± 3.4 mg/dL
same,Triglyceride,[2]; [9],31.1 ± 5.4 mg/dL
same,Cholesterol,[2]; [10],56.5 ± 4.6 mg/dL
same,Triglyceride,[2]; [10],30.6 ± 5.1 mg/dL
same,effect on triglyceride compared with PTU (in words),"[2]; hyperthyroidism rats, THP i.p.",may reduce the triglyceride of the hyperthyroidism rats to be superior to PTU
same,FT3,[3]; [11],1.42 ± 0.62 ng/dL
same,FT4,[3]; [11],5.27 ± 1.05 ng/dL
same,T3,[3]; [11],42.36 ± 4.25 ng/dL
same,T4,[3]; [11],4.91 ± 0.17 µg/dL
same,TSH,[3]; [11],0.77 ± 0.10 μu/ml
same,"effect on T3, T4, FT3 and FT4 (in words, summary)",[3]; hyperthyroidism rats,"may markedly decrease the concentration of T3, T4, FT3 and FT4"
same,"effect on TSH (in words, summary)",[3]; hyperthyroidism rats,will not influence the TSH concentration in the blood
same,"effect on T3, T4, FT3 and FT4 (in words)",[3]; [12],"will greatly reduce T3 (P<0.01), T4 (P<0.05), FT3 (P<0.01) and FT4 (P<0.01)"
same,effect on TSH (in words),[3]; [12],no remarkable influence on TSH concentration
same,pharmacological effect relative to PBT (in words),"[3]; hyperthyroidism rats, THP dosage much smaller than PBT dose",not less than that of the PBT
same,T4,[4]; THP 2.5 mg/kg i.p.,3.3 ± 0.4 µg/dL
same,T4,[4]; THP 5 mg/kg i.p.,3.1 ± 0.5 µg/dL
same,T4,[4]; THP 10.0 mg/kg i.p.,3.2 ± 0.5 µg/dL
same,FT3,[5]; [13],1.18 ± 0.01 ng/dL
same,FT4,[5]; [13],1.97 ± 0.14 ng/dL
same,T3,[5]; [13],49.05 ± 2.45 µg/dL
same,T4,[5]; [13],2.32 ± 0.25 µg/dL
same,TSH,[5]; [13],1.89 ± 0.13 μu/ml
"CCCc1cc(=O)[nH]c(=S)[nH]1 [PTU, propylthiouracil]",changes in thyroid weight (in words),rat thyroid,clearly shows an increase thyroid weight (P<0.001); also recorded: may increase thyroid weight
same,"effect on T3, T4, FT3 and FT4 (in words)",[1]; PTU,"reduces the T3, T4, FT3 and FT4"
same,effect on TSH (in words),[1]; PTU,increases the TSH concentration
same,effect on thyroid follicle cells and colloid (in words),[1]; PTU,expand thyroid follicle cells and cause colloidal loss
same,FT3,[1]; PTU 5.0 mg/kg,0.4 ± 0.1 ng/dL
same,FT4,[1]; PTU 5.0 mg/kg,0.4 ± 0.1 ng/dL
same,T3,[1]; PTU 5.0 mg/kg,31.8 ± 3.1 ng/dL
same,T4,[1]; PTU 5.0 mg/kg,0.9 ± 0.1 µg/dL
same,TSH,[1]; PTU 5.0 mg/kg,4.5 ± 0.4 μu/ml
same,"effect on T3, T4, FT3 and FT4 (in words)",[6]; PTU 5 mg/kg,"may remarkably reduce the concentrations of T3 (P <0.001), T4 (P<0.001), FT3 (P<0.01) and FT4 (P<0.001)"
same,effect on TSH (in words),[6]; PTU 5 mg/kg,remarkably increase TSH (P<0.01)
same,FT3,[6]; PTU 5 mg/kg p.o.,0.44 ± 0.02 ng/dL
same,FT4,[6]; PTU 5 mg/kg p.o.,0.47 ± 0.04 ng/dL
same,T3,[6]; PTU 5 mg/kg p.o.,17.92 ± 1.43 ng/dL
same,T4,[6]; PTU 5 mg/kg p.o.,1.11 ± 0.02 µg/dL
same,TSH,[6]; PTU 5 mg/kg p.o.,3.98 ± 0.40 µg/mL
same,pathologic section of the thyroid (in words),thyroid follicle cells,"remarkable expansion of the thyroid follicle cells and their colloidal loss; also recorded: will cause the formation of follicle cells, and loss of colloid"
same,Cholesterol,[2]; [14],73.9 ± 3.2 mg/dL
same,T4,[2]; [14],1.2 ± 0.2 µg/dL
same,Triglyceride,[2]; [14],35.6 ± 3.2 mg/dL
same,FT3,[3]; [15],2.01 ± 0.25 ng/dL
same,FT4,[3]; [15],3.24 ± 0.98 ng/dL
same,T3,[3]; [15],30.25 ± 3.25 ng/dL
same,T4,[3]; [15],1.95 ± 0.25 µg/dL
same,TSH,[3]; [15],3.98 ± 0.51 μu/ml
same,"effect on T3, T4, FT3 and FT4 (in words)","[3]; hyperthyroidism rats, PTU 5 mg/kg, P.O.","may decrease the T3 (P<0.001), T4 (P<0.001), FT3 (P<0.001) and FT4 (P<0.001)"
same,TSH,"[3]; hyperthyroidism rats, PTU 5 mg/kg, P.O., increase from 0.99±0.11, P<0.001",3.98 ± 0.51 µg/mL
same,effect on follicle cells and colloid (in words),[7],expansion of follicle cells and colloidal loss
same,effect on thyroid weight (in words),[7],increase of thyroid weight
same,"effect on T3, T4, FT3 and FT4 (in words)",[5]; PTU 5 mg/kg P.O.,"will remarkably reduce T3 (P<0.001), T4 (P<0.001), FT3 (P<0.001) and FT4 (P<0.001)"
same,TSH,"[5]; PTU 5 mg/kg P.O., increase from 2.28±0.16 μu/ml, P<0.001",4.54±0.01 μm/ml
same,FT3,"[5]; PTU 5 mg/kg p.o., 10 days",0.37 ± 0.10 ng/dL
same,FT4,"[5]; PTU 5 mg/kg p.o., 10 days",0.35 ± 0.09 ng/dL
same,T3,"[5]; PTU 5 mg/kg p.o., 10 days",31.77 ± 3.10 µg/dL
same,T4,"[5]; PTU 5 mg/kg p.o., 10 days",0.92 ± 0.14 µg/dL
same,TSH,"[5]; PTU 5 mg/kg p.o., 10 days",4.54 ± 0.41 μu/ml
